Key:
healthy adult males = assay: Incremental loading exercise test with bicycle; assay type: in vivo, human; settings: compared with no intake of kaempferol
Protocol: For 25 healthy adult males, 3 dosages of kaempferol-containing cookie-shaped foods (containing 2.5 mg, 10 mg, or 25 mg of kaempferol, respectively) and a placebo cookie-shaped food (kaempferol-free) were used as test foods, and a once-a-day ingestion for consecutive 8 days were repeated four times by the crossover method. 3 hours after a test food ingestion on day 1 (Single ingestion) and on day 8 (Consecutive ingestion), an incremental loading exercise with bicycle was performed while sampling the exhaled gas to determine the oxygen consumption. The Heart rate and the rating of perceived exertion were monitored during exercise. Dynamic/kinetic visual acuity was measured before and after the exercise. Details of each endpoint are given below. Oxygen consumption (VO2) (mL/min/kg) was calculated from the difference between the amount of oxygen in the inhaled gas (atmosphere) and the amount of oxygen in the exhaled gas. When a weight of the pedal approaches a subject's limit during incremental loading exercise with bicycle, a heart rate (HR) is maximized. The increase in heart rate from the resting heart rate to the maximum heart rate was defined as 100% of exercise intensity, and the oxygen consumption (VO2) was plotted at each exercise intensity. That is, for example, an exercise intensity of 50% HR is calculated by the following equation: 100×(x−Resting heart rate)/(Maximum heart rate−Resting heart rate)=50% HR, and the oxygen consumption (VO2) in which the heart rate is the “x” means “oxygen consumption (VO2) at an exercise intensity of 50% HR”. Oxygen consumption efficiency was calculated by the following equation. Oxygen consumption efficiency (VO2/VE)=oxygen consumption/ventilation The oxygen uptake efficiency slope (OUES) was calculated using the ventilation and VO2 every 1 min from the beginning of the incremental loading exercise. Specifically, a graph of linearity was obtained by plotting “logarithmic value of ventilation (VE)” on the horizontal axis and “VO2” on the vertical axis, and the slope of the linear function graph was defined as OUES. For details, see Non-Patent Document 5. Exercise intensity (% HR) and rating of perceived exertion (RPE) at the oxygen consumption (VO2) of 14 mL/min/kg and 24.5 mL/min/kg in incremental loading exercise (the levels of stair climbing and jogging, respectively) were evaluated. The calculation methods for oxygen consumption (VO2) and exercise intensity (% HR) are the same as those described above. The perceived exertion was rated by the subject according to the following table at 1-minute intervals from the beginning of the incremental loading exercise, and the scales rated by each subject were averaged to give the rating of perceived exertion (RPE).

healthy male adults = assay: Effect on performance in 400 m run; assay type: in vivo, human; settings: single ingestion, 10 mg aglycone equivalent, 3 hours before run; placebo group −0.11 seconds
Protocol: A two-group and two-phase crossover study (single ingestion) was conducted for 13 healthy male adults. In the study, a kaempferol-containing capsule-shaped food (SNR 14) wherein the aglycone equivalent value is 10 mg; and a placebo capsule-shaped food: Placebo (kaempferol free) were used as test foods. Three hours after taking the test food, the subjects sprinted 400 m, and sprinted 400 m again after a 90 minute interval. Respiratory rate and heart rate were monitored during the sprint. The expiratory mouth pressure was measured by the maximum mouth pressure method, before and after the 400 m runs, using an electronic spirometer, autospyro (Minato Medical Science Co., Ltd.). The subjects inhaled to the limit after three deep breaths in a standing position and then exhaled with full force into the mouthpiece for measurement while preventing air leakage from the nose to determine expiratory mouth pressure.

[1] = at oxygen consumption (VO2) of 14 and 24.5 mL/min/kg (stair climbing and jogging levels), single and consecutive ingestion
[2] = single ingestion and consecutive ingestion

SMILES: O=c1c(O)c(-c2ccc(O)cc2)oc2cc(O)cc(O)c12 [kaempferol]
- oxygen consumption (VO2) (healthy adult males; at all exercise intensities (50%, 60%, 70%, 80%, 90%, and 100% HR), single ingestion and consecutive ingestion (8 days), 2.5, 10 or 25 mg kaempferol cookie): increased
- exercise intensity (% HR) (healthy adult males; [1]): decreased
- rating of perceived exertion (RPE) (healthy adult males; [1]): decreased
- maximum exercise load (Pedal Weight (watt)) (healthy adult males; [2]): increased
- maximum oxygen consumption (VO2peak) (healthy adult males; [2]): increased
- oxygen consumption efficiency (VO2/VE) (healthy adult males; [2]): increased
- oxygen uptake efficiency slope (OUES) (healthy adult males; [2]): increased
- mean time change between the 1st and 2nd 400 m runs (healthy male adults): -0.77 s

Reference: patent publication US12048683B2, “Kaempferol analog-containing composition” (OTSUKA PHARMACEUTICAL CO., LTD., priority 2017, dated 2024)
